How the values were obtained:
[1] = target: T1, Prostaglandin D2 receptor (Homo sapiens, UniProt Q13258)
T1 sequence (Q13258 whole entry): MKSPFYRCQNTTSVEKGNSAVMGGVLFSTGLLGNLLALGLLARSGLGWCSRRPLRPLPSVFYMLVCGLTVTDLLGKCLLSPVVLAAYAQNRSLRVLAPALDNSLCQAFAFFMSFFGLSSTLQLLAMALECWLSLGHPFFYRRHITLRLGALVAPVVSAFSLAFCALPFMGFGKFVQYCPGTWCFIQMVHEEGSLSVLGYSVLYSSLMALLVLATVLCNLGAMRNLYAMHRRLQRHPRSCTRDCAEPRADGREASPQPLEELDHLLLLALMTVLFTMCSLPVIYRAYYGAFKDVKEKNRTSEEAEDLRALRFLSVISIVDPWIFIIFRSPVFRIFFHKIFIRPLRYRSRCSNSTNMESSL

Thromboxane-A synthase = target: T2, Thromboxane-A synthase (Homo sapiens, UniProt P24557)
T2 sequence (P24557 whole entry): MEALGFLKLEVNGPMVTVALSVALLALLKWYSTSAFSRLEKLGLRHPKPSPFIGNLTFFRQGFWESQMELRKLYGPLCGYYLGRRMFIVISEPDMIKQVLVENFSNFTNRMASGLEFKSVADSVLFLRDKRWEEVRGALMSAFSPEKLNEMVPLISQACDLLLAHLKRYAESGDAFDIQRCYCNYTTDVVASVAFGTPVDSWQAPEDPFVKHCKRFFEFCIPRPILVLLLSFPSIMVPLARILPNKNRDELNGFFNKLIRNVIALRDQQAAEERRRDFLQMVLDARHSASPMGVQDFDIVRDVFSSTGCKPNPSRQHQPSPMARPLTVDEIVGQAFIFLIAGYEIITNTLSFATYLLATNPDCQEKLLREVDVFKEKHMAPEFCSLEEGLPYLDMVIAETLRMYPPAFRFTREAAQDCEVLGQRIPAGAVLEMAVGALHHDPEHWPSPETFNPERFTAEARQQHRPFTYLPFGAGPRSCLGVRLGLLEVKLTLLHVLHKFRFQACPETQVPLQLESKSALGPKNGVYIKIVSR

[2] = target: T3, Muscarinic acetylcholine receptor M1 (Homo sapiens, UniProt P11229)
T3 sequence (P11229 whole entry): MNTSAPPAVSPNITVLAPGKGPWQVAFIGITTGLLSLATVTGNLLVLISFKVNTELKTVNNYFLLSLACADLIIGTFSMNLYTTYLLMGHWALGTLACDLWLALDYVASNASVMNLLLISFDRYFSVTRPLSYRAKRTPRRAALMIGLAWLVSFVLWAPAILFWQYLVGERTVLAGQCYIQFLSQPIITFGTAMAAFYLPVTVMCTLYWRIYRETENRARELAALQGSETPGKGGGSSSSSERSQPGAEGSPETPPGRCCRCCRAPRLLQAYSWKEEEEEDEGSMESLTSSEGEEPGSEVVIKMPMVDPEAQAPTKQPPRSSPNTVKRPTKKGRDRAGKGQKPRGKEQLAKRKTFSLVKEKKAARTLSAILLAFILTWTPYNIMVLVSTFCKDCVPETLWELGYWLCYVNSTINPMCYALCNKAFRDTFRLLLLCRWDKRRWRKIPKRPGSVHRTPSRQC

[3] = target: T4, Polyunsaturated fatty acid 5-lipoxygenase (Homo sapiens, UniProt P09917)
T4 sequence (P09917 whole entry): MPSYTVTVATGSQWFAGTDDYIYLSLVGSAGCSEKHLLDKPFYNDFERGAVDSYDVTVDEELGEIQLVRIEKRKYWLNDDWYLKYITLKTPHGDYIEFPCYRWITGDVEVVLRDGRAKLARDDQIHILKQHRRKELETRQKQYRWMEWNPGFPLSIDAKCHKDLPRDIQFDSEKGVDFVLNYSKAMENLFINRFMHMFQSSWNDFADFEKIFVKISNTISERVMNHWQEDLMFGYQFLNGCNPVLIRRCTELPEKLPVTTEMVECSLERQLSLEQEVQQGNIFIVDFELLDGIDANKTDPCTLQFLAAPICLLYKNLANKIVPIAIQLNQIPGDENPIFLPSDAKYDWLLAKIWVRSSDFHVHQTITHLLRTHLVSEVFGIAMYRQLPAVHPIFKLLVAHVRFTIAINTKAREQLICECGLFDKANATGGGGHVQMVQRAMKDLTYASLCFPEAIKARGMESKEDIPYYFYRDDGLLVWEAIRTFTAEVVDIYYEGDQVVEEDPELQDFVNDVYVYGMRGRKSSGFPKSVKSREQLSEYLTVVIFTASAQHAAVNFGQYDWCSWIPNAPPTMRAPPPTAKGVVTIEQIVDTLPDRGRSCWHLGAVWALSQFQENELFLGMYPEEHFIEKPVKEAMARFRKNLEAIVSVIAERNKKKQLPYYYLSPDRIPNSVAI

Thromboxane A2 receptor = target: T5, Thromboxane A2 receptor (Homo sapiens, UniProt P21731)
T5 sequence (P21731 whole entry): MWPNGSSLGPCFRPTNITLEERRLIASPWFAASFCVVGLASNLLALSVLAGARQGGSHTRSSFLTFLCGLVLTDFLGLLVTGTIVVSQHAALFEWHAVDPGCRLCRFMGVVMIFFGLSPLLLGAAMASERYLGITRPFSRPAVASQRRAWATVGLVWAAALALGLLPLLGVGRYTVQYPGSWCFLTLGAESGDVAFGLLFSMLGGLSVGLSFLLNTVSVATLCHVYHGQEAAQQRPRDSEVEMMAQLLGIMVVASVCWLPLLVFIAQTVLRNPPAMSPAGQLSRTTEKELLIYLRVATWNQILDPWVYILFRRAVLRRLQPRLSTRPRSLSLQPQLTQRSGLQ

[4] = target: 5-hydroxytryptamine receptor 2A (Rattus norvegicus, UniProt P14842)
5-hydroxytryptamine receptor 2A, sequence (P14842 whole entry): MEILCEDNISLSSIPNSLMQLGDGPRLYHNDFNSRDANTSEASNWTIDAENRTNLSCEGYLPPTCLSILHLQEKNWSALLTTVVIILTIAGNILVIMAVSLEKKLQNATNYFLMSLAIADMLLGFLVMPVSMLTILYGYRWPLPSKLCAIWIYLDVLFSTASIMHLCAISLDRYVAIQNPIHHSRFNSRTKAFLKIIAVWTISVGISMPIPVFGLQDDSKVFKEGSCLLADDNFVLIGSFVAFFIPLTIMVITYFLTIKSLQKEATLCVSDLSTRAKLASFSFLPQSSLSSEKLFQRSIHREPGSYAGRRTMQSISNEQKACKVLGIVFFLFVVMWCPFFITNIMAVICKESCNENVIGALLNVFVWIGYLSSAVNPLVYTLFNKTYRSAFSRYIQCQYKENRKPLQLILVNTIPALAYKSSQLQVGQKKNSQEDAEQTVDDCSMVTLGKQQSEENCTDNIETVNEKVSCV

Histamine H1 receptor = Histamine H1 receptor (Homo sapiens, UniProt P35367)
Histamine H1 receptor, sequence (P35367 whole entry): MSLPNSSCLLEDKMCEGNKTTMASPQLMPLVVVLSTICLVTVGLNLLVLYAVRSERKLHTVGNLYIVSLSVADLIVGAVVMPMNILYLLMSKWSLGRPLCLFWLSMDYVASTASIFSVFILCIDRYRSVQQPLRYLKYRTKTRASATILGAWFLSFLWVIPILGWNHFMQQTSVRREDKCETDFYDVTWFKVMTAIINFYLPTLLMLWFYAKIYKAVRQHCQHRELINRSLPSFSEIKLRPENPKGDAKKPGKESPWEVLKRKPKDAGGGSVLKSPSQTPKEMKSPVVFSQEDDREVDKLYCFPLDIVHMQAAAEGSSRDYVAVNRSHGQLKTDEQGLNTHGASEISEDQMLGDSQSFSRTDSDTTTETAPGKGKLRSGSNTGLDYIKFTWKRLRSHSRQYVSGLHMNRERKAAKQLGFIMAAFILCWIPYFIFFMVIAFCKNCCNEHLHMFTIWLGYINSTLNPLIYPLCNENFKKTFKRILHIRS

Measured: Ki

CC(C)C(=O)N(c1ccccc1)C1CC(C)N(C(=O)c2ccccc2)c2ccccc21 (stereo unspecified) [K117]
> 1000 nM: all assays above

CCC(=O)N1c2ccccc2C(N(C(C)=O)c2ccccc2)CC1C (stereo unspecified) [K376]
> 1000 nM: all assays above

CC1CC(N(C(=O)C2CC2)c2ccccc2)c2ccccc2N1C(=O)c1ccccc1 (stereo unspecified) [K604]
> 1000 nM: all assays above
